Assays:
Experiment in all cases: in vitro antibacterial evaluation, MIC by broth dilution
Type in all cases: cell-based
Enterococcus sp. = settings: broth dilution, 18 hours at 35° C.
Method in brief: (§1)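 Read-out: the lowest concentration at which the test strain fails to grow. Serial dilutions (64-0.06 μg/mL) in Muller-Hinton II […], 5×10^5 CFU/mL inoculum, NCCLS M7-A2 procedure.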

Staphylococcus sp. = settings: broth dilution, 18 hours at 35° C.
Method in brief: as §1

Streptococcus sp. = settings: broth dilution, 18 hours at 35° C.
Method in brief: as §1

Escherichia coli = settings: 18 hours at 35° C.

CC(c1ccccc1)C1NC(=O)CNC(=O)C(CO)NC(=O)C(C(O)C2CNC(=N)N2C2OC(CO)C(O)C(O)C2O)NC(=O)C(C(O)C2CNC(=N)N2)NC(=O)C(Cc2ccc(OC3OC(CO)C(OC4OC(CO)C(O)C(O)C4OCc4ccc(OCc5ccccc5)cc4)C(O)C3O)cc2)NC1=O (stereo not drawn) [Example 231b, Cyclo[glycyl-β-methylphenylalanyl-O-[4-O-[2-O-[4-(phenylmethoxy)benzyl]hexopyranosyl]-hexopyranosyl]tyrosyl-3-(2-iminoimidazolidin-4-yl)seryl-3-(3-hexopyranosyl-2-iminoimidazolidin-4-yl)serylseryl]]
MIC Enterococcus avium (GC 4558) (Enterococcus sp.): 8 to 64 µg/mL
MIC Enterococcus faecalis (ATCC 29212) (Enterococcus sp.): 8 to 128 µg/mL
MIC Enterococcus faecalis (GC 2242) (Enterococcus sp.): 8 to 64 µg/mL
MIC Enterococcus faecalis (GC 2691) (Enterococcus sp.): 16 to 64 µg/mL
MIC Enterococcus faecalis (GC 3059) (Enterococcus sp.): 16 to 128 µg/mL
MIC Enterococcus faecalis (GC 4552) (Enterococcus sp.): 8 to 128 µg/mL
MIC Enterococcus faecalis (GC 4553) (Enterococcus sp.): 8 to 128 µg/mL
MIC Enterococcus faecalis (GC 4554) (Enterococcus sp.): 16 to 128 µg/mL
MIC Enterococcus faecalis (GC 6189) (Enterococcus sp.): 8 to 64 µg/mL
MIC Enterococcus faecium (GC 2243) (Enterococcus sp.): 8 to 128 µg/mL
MIC Enterococcus faecium (GC 4556) (Enterococcus sp.): 16 to 128 µg/mL
MIC Enterococcus faecium (GC 4557) (Enterococcus sp.): 4 to 16 µg/mL
MIC Enterococcus faecalis (ATCC 29212) (Enterococcus sp.; inoculum 5×10^5 CFU/mL, strain ATCC 29212): 8 to 128 µg/mL
MIC Enterococcus faecalis (GC 2242) (Enterococcus sp.; inoculum 5×10^5 CFU/mL, strain GC 2242): 8 to 64 µg/mL
MIC Enterococcus faecium (GC 2243) (Enterococcus sp.; inoculum 5×10^5 CFU/mL, strain GC 2243): 8 to 128 µg/mL
MIC Enterococcus faecalis (GC 2691) (Enterococcus sp.; inoculum 5×10^5 CFU/mL, strain GC 2691): 16 to 64 µg/mL
MIC Enterococcus faecalis (GC 3059) (Enterococcus sp.; inoculum 5×10^5 CFU/mL, strain GC 3059): 16 to 128 µg/mL
MIC Enterococcus faecalis (GC 4552) (Enterococcus sp.; inoculum 5×10^5 CFU/mL, strain GC 4552): 8 to 128 µg/mL
MIC Enterococcus faecalis (GC 4553) (Enterococcus sp.; inoculum 5×10^5 CFU/mL, strain GC 4553): 8 to 128 µg/mL
MIC Enterococcus faecalis (GC 4554) (Enterococcus sp.; inoculum 5×10^5 CFU/mL, strain GC 4554): 16 to 128 µg/mL
MIC Enterococcus faecium (GC 4556) (Enterococcus sp.; inoculum 5×10^5 CFU/mL, strain GC 4556): 16 to 128 µg/mL
MIC Enterococcus faecium (GC 4557) (Enterococcus sp.; inoculum 5×10^5 CFU/mL, strain GC 4557): 4 to 16 µg/mL
MIC Enterococcus avium (GC 4558) (Enterococcus sp.; inoculum 5×10^5 CFU/mL, strain GC 4558): 8 to 64 µg/mL
MIC Enterococcus faecalis (GC 6189) (Enterococcus sp.; inoculum 5×10^5 CFU/mL, strain GC 6189): 8 to 64 µg/mL
MIC Coagulase Negative Staphylococcus (GC 4547) (Staphylococcus sp.): 4 to 32 µg/mL
MIC Coagulase Negative Staphylococcus (GC 4548) (Staphylococcus sp.): 2 to 32 µg/mL
MIC Coagulase Negative Staphylococcus (GC 4549) (Staphylococcus sp.): 2 to 16 µg/mL
MIC Coagulase Negative Staphylococcus (GC 4551) (Staphylococcus sp.): 8 to 32 µg/mL
MIC Coagulase Negative Staphylococcus (GC 6257) (Staphylococcus sp.): 1 to 32 µg/mL
MIC Staphylococcus aureus (ATCC 29213) (Staphylococcus sp.): 4 to 64 µg/mL
MIC Staphylococcus aureus (GC 1131) (Staphylococcus sp.): 4 to 64 µg/mL
MIC Staphylococcus aureus (GC 3051) (Staphylococcus sp.): 4 to 64 µg/mL
MIC Staphylococcus aureus (GC 3053) (Staphylococcus sp.): 8 to 64 µg/mL
MIC Staphylococcus aureus (GC 4541) (Staphylococcus sp.): 4 to 32 µg/mL
MIC Staphylococcus aureus (GC 4542) (Staphylococcus sp.): 4 to 32 µg/mL
MIC Staphylococcus aureus (GC 4544) (Staphylococcus sp.): 4 to 64 µg/mL
MIC Staphylococcus aureus (GC 4545) (Staphylococcus sp.): 4 to 32 µg/mL
MIC Staphylococcus aureus-SMITH (GC 4543) (Staphylococcus sp.): 4 to 64 µg/mL
MIC Staphylococcus haemolyticus (GC 4546) (Staphylococcus sp.): 4 to 32 µg/mL
MIC Staphylococcus aureus (ATCC 29213) (Staphylococcus sp.; strain ATCC 29213): 4 to 64 µg/mL
MIC Staphylococcus aureus (GC 1131) (Staphylococcus sp.; strain GC 1131): 4 to 64 µg/mL
MIC Staphylococcus aureus (GC 3051) (Staphylococcus sp.; strain GC 3051): 4 to 64 µg/mL
MIC Staphylococcus aureus (GC 3053) (Staphylococcus sp.; strain GC 3053): 8 to 64 µg/mL
MIC Staphylococcus aureus (GC 4541) (Staphylococcus sp.; strain GC 4541): 4 to 32 µg/mL
MIC Staphylococcus aureus (GC 4542) (Staphylococcus sp.; strain GC 4542): 4 to 32 µg/mL
MIC Staphylococcus aureus-SMITH (GC 4543) (Staphylococcus sp.; strain GC 4543): 4 to 64 µg/mL
MIC Staphylococcus aureus (GC 4544) (Staphylococcus sp.; strain GC 4544): 4 to 64 µg/mL
MIC Staphylococcus aureus (GC 4545) (Staphylococcus sp.; strain GC 4545): 4 to 32 µg/mL
MIC Staphylococcus haemolyticus (GC 4546) (Staphylococcus sp.; strain GC 4546): 4 to 32 µg/mL
MIC Coagulase Negative Staphylococcus (GC 4547) (Staphylococcus sp.; strain GC 4547): 4 to 32 µg/mL
MIC Coagulase Negative Staphylococcus (GC 4548) (Staphylococcus sp.; strain GC 4548): 2 to 32 µg/mL
MIC Coagulase Negative Staphylococcus (GC 4549) (Staphylococcus sp.; strain GC 4549): 2 to 16 µg/mL
MIC Coagulase Negative Staphylococcus (GC 4551) (Staphylococcus sp.; strain GC 4551): 8 to 32 µg/mL
MIC Coagulase Negative Staphylococcus (GC 6257) (Staphylococcus sp.; strain GC 6257): 1 to 32 µg/mL
MIC Streptococcus agalactiae (GC 4564) (Streptococcus sp.): 1 to 8 µg/mL
MIC Streptococcus pneumoniae (ATCC 6301) (Streptococcus sp.): 0.25 to 2 µg/mL
MIC Streptococcus pneumoniae (GC 1894) (Streptococcus sp.): <0.06 to 2 µg/mL
MIC Streptococcus pneumoniae (GC 4565) (Streptococcus sp.): 0.5 to 8 µg/mL
MIC Streptococcus pyogenes (GC 4563) (Streptococcus sp.): 1 to 8 µg/mL
MIC Streptococcus pneumoniae (ATCC 6301) (Streptococcus sp.; inoculum 5×10^5 CFU/mL, strain ATCC 6301): 0.25 to 2 µg/mL
MIC Streptococcus pneumoniae (GC 1894) (Streptococcus sp.; inoculum 5×10^5 CFU/mL, strain GC 1894): <0.06 to 2 µg/mL
MIC Streptococcus pyogenes (GC 4563) (Streptococcus sp.; inoculum 5×10^5 CFU/mL, strain GC 4563): 1 to 8 µg/mL
MIC Streptococcus agalactiae (GC 4564) (Streptococcus sp.; inoculum 5×10^5 CFU/mL, strain GC 4564): 1 to 8 µg/mL
MIC Streptococcus pneumoniae (GC 4565) (Streptococcus sp.; inoculum 5×10^5 CFU/mL, strain GC 4565): 0.5 to 8 µg/mL
MIC Escherichia coli (ATCC 25922) (Escherichia coli): >128 µg/mL
MIC Escherichia coli (GC 4559) (Escherichia coli): >128 µg/mL
MIC Escherichia coli (GC 4560) (Escherichia coli): 0.25 to 4 µg/mL

Reference: patent US6914045B2, “Glycopeptide antibiotics” (Wyeth Holdings Corporation, priority 2001, dated 2005)
